Patent US8642653B2, “Ketone compounds and compositions for cholesterol management and related uses” (Esperion Therapeutics, Inc., priority 2003, dated 2014)
Where two headings read alike, the source gives them in different places. Each block holds one compound with its values, some of them ahead of it.

Experiments:
obese female Zucker rats = test: Daily oral gavage in obese female Zucker rats: serum nonHDL cholesterol, HDL cholesterol, triglycerides, glycemic control indicators, body weight; assay type: in vivo, rat (Zucker fatty Crl:(Zuc)-faBR); conditions: Rattus norvegicus, 100 mg/kg daily oral gavage
Method: Ten- to twelve-week old (400-500 grams) female Zucker fatty rats Crl: (Zuc)-faBR were obtained from Charles River Laboratories. Animals were acclimated to the laboratory environment for seven days. During the acclimation and study period, animals were housed by group in shoebox polycarbonate cages on Cellu-Dri bedding. The temperature and humidity in the animals' quarters (68-78° F.; 30-75% RH) were monitored and the airflow in the room was sufficient to provide several exchanges per hour with 100% fresh filtered air. An automatic timing device provided an alternating 12-hour cycle of light and dark. Rats received pelleted Purina Laboratory Rodent Chow® (5001) prior to and during the drug intervention period except for a 6-hour phase prior to blood sampling. Fresh water was supplied ad libitum via an automatic watering system. Compounds were dissolved, suspended by mixing in a dosing vehicle consisting of 1.5% carboxymethylcellulose/0.2% Tween 20 or 20% ethanol and 80% polyethylene glycol-200 [v/v]. Dose volume of vehicle or vehicle plus each compound was set at 0.25% of body weight in order to deliver the appropriate dose. Doses were administered daily by oral gavage, approximately between 8-10 AM. Regarding blood sampling, animals were fasted for 6 hours prior to all blood collections. Prior to and after 7 days of dosing, a 1.0- to 2.0-mL sample of blood was collected by administering O2/CO2 anesthesia and bleeding from the orbital venous plexus. Following 14 days of dosing, blood was collected by cardiac puncture after euthanasia with CO2. All blood samples were processed for separation of serum and stored at −80° C. until analysis. Commercially available kits were used to determine serum triglycerides (Roche Diagnostic Corporation, Kit No. 148899 or Boehringer Mannheim, Kit No. 1488872), total cholesterol (Roche Diagnostic Corporation, Kit No. 450061), non-esterified fatty acids (Wako Chemicals, Kit No. 994-75409) and β-hydroxybutyrate (Wako Chemicals, Kit No. 417-73501 or Sigma Kit. No. 310-0) on a Hitachi 912 Automatic Analyzer (Roche Diagnostic Corporation). In some instances, an in-house cholesterol reagent was used to determine total serum cholesterol levels. Serum lipoprotein cholesterol levels were determined by lipoprotein profile analysis. Lipoprotein profiles were analyzed using gel-filtration chromatography on a Superose 6HR (1×30 cm) column equipped with on-line detection of total cholesterol as described by Kieft et al (Kieft, K. A.; Bocan, T. M.; Krause, B. R. Rapid on-line determination of cholesterol distribution among plasma lipoproteins after high-performance gel filtration chromatography. J. Lipid Res. 1991, 32, 859-866.). The total cholesterol content of each lipoprotein was calculated by multiplying the independent values determined for serum total cholesterol by the percent area of each lipoprotein in the profile. The percent body weight gain and the ratio of liver to body weight is also determined. Selected data are shown as absolute values or as a percent change of the pretreatment values in Tables 8 and 9.
Select compounds (214c, 210c, and 210g) were further evaluated in the Zucker rat by performing a full dose response and measuring additional serum variables including markers for diabetes (Tables 10-12).

[1] = tested on: Lipid Synthesis in Primary Rat Hepatocytes; test: Inhibition of lipid synthesis ([1-14C]-acetate incorporation) in primary cultures of rat hepatocytes; assay type: cell-based, rat (Sprague-Dawley); conditions: Hepatocyte, 4 h, 4 h incubation with [1-14C]-acetate, 0-300 μM compound, Table 7, ranges where confidence of estimate is insufficient to assign a value
Method: Compounds were tested for inhibition of lipid synthesis in primary cultures of rat hepatocytes. […] Sprague-Dawley rats were anesthetized with intraperitoneal injection of sodium pentobarbital (80 mg/kg). Rat hepatocytes were isolated essentially as described by the method of Seglen (Seglen, P. O. Hepatocyte suspensions and cultures as tools in experimental carcinogenesis. J. Toxicol. Environ. Health 1979, 5, 551-560). Hepatocytes were suspended in Dulbecco's Modified Eagles Medium containing 25 mM D-glucose, 14 mM HEPES, 5 mM L-glutamine, 5 mM leucine, 5 mM alanine, 10 mM lactate, 1 mM pyruvate, 0.2% bovine serum albumin, 17.4 mM non-essential amino acids, 20% fetal bovine serum, 100 nM insulin and 20 μg/mL gentamycin) and plated at a density of 1.5×10^5 cells/cm^2 on collagen-coated 96-well plates. Four hours after plating, media was replaced with the same media without serum. […] Lipid synthesis incubation conditions were initially assessed to ensure the linearity of [1-^14C]-acetate incorporation into hepatocyte lipids for up to 4 hours. Hepatocyte lipid synthesis inhibitory activity was assessed during incubations in the presence of 0.25 μCi [1-^14C]-acetate/well (final radiospecific activity in assay is 1 Ci/mol) and 0, 1, 3, 10, 30, 100 or 300 μM of compounds for 4 hours. […] Lipid radioactivity was assessed by scintillation spectroscopy in a Packard TopCount NXT.

[2] = 168 h, 1 wk, Table 9, read-out: HDL-Cholesterol, Percent Change from Pre-Treatment, 1 wk

SMILES: CC(C)(CCCCCC(=O)CCCCCC(C)(C)C(=O)O)C(=O)O
change in vivo at 100 mg/kg (obese female Zucker rats; [2]): 70%

SMILES: CC(C)(CCCCCCCC(=O)CCCCCCCC(C)(C)C(=O)O)C(=O)O [drawing 538]
IC50 [1]: 5 µM

SMILES: CC(C)(CCCCCCCC(=O)CCCCCCCC(C)(C)C(=O)O)C(=O)O [drawing 559]
change in vivo at 100 mg/kg (obese female Zucker rats; [2]): 44%
change in vivo at 100 mg/kg (obese female Zucker rats; 168 h, 1 wk, Table 9, read-out: NonHDL-Cholesterol, Percent Change from Pre-Treatment, 1 wk): -80%
change in vivo at 100 mg/kg (obese female Zucker rats; 168 h, 1 wk, Table 9, read-out: TG, Percent Change from Pre-Treatment, 1 wk): -85%
change in vivo at 100 mg/kg (obese female Zucker rats; 336 h, 2 wk, Table 9, read-out: HDL-Cholesterol, Percent Change from Pre-Treatment, 2 wk): 86%
change in vivo at 100 mg/kg (obese female Zucker rats; 336 h, 2 wk, Table 9, read-out: NonHDL-Cholesterol, Percent Change from Pre-Treatment, 2 wk): -46%
change in vivo at 100 mg/kg (obese female Zucker rats; 336 h, 2 wk, Table 9, read-out: TG, Percent Change from Pre-Treatment, 2 wk): -63%

Second part, the compound after the results:

melting point: 99 to 103 °C
SMILES: O=C(CCCCC1(C(=O)O)CCCC1)CCCCC1(C(=O)O)CCCC1 [Compound 107g, 1-[9-(1-Carboxycyclopentyl)-5-oxononyl]-1-cyclopentanecarboxylic acid]

melting point: 122 to 123 °C
SMILES: O=C(CCCCCC1(C(=O)O)CC1)CCCCCC1(C(=O)O)CC1 [Compound 107l, 1-[11-(1-Carboxycyclopropyl)-6-oxoundecyl]-1-cyclopropanecarboxylic acid]

melting point: 78 to 85 °C
SMILES: O=C(CCCCCC1(C(=O)O)CCCC1)CCCCCC1(C(=O)O)CCCC1 [Compound 107m, 1-[11-(1-Carboxycyclopentyl)-6-oxoundecyl]-1-cyclopentanecarboxylic acid]

melting point: 74 to 77 °C
SMILES: CC(C)(CCCCCCCC(=O)CCCCCCCC(C)(C)C(=O)O)C(=O)O [Compound 107n, 10-Oxo-2,2,18,18-tetramethyl-nonadecanedioic acid]
